Earlier results, collected in patent US20180353602A1, “COMBINATION OF HDAC INHIBITOR AND ANTI-PD-L1 ANTIBODY FOR TREATMENT OF CANCER” (Syndax Pharmaceuticals, Inc., priority 2015, published 2018).
Where two headings read alike, the source gives them in different places.

Tests used:
[1] = in vivo
[2] = tested on: squamous or non-squamous non small cell lung cancer (NSCLC); conditions: ≤1, 10, 15, and 25 mg/kg every 3 weeks for up to 1 year

| Molecule | half-life [1] | 24-week progression free survival (PFS) rate ([2]; non-squamous cell NSCLC patients) [%] | 24-week progression free survival (PFS) rate ([2]; squamous cell NSCLC patients) [%] |
| --- | --- | --- | --- |
| Nc1ccccc1NC(=O)c1ccc(CNC(=O)OCc2cccnc2)cc1 [Entinostat, N-(2-aminophenyl)-4-[N-(pyridine-3-yl)methoxycarbonylamino-methyl]-benzamide] | about 100 hours |  |  |
| MPDL3280A: human anti-PD-L1 mAb directed against the protein ligand PD-L1, with an engineered Fc domain minimizing ADCC |  | 46 | 44 |
